Data: patent US12172995B2, “Substituted indole and indazole compounds” (BRISTOL-MYERS SQUIBB COMPANY, priority 2018, dated 2024)
pIC50: −log10 of the molar value.

How the values were obtained:
Assay type in all cases: cell-based
human TLR7 = target: T1, human TLR7 (Homo sapiens, UniProt Q9NYK1); test: TLR7 inhibition reporter assay (HEK-Blue SEAP); details: HEK-Blue cells overexpressing human TLR7, stimulated with gardiquimod 7.5 μM, 22 hour incubation
T1 construct: host or cells: HEK-Blue cells
T1 sequence (Q9NYK1 27-1049): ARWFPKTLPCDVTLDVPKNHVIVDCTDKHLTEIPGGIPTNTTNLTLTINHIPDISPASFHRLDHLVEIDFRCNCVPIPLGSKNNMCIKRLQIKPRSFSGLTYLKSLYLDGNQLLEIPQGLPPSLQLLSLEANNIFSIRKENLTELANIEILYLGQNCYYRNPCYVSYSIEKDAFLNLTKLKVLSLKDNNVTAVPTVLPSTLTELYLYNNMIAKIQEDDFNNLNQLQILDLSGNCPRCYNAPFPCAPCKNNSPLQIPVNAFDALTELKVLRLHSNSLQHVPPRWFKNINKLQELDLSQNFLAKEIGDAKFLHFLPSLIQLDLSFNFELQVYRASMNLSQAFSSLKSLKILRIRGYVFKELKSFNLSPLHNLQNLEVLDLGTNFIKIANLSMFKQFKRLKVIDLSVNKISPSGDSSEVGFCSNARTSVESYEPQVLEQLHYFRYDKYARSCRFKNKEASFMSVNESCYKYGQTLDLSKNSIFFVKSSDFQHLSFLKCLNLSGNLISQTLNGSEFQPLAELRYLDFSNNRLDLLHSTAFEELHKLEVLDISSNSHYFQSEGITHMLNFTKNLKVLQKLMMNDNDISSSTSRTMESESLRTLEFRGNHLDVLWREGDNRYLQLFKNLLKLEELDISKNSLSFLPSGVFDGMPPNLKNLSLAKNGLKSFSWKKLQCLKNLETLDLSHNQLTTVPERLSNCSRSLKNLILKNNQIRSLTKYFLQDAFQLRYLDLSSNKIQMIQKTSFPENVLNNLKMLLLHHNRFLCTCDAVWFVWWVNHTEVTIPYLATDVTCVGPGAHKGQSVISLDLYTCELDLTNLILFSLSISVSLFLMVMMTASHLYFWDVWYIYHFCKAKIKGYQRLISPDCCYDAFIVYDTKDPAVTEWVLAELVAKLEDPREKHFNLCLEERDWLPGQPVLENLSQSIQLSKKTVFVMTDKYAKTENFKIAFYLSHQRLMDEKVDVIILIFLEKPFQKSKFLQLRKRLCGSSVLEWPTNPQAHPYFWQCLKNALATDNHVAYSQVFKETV
Method: (§1) TLR7/8/9 Inhibition Reporter Assays
(§2) HEK-Blue™-cells (Invivogen) overexpressing human TLR7, TLR8 or TLR9 receptors were used for screening inhibitors of these receptors using an inducible SEAP (secreted embryonic alkaline phosphatase) reporter gene under the control of the IFN-β minimal promoter fused to five NF-κB and AP-1-binding sites. Briefly, cells are seeded into Greiner 384 well plates (15000 cells per well for TLR7, 20,000 for TLR8 and 25,000 for TLR9) and then treated with test compounds in DMSO to yield a final dose response concentration range of 0.05 nM to 50 μM. After a 30 minute compound pre-treatment at room temperature, the cells are then stimulated with a TLR7 ligand (gardiquimod at a final concentration of 7.5 μM), TLR8 ligand (R848 at a final concentration of 15.9 μM) or TLR9 ligand (ODN2006 at a final concentration of 5 nM) to activate NF-κB and AP-1 which induce the production of SEAP. After a 22 hour incubation at 37° C., 5% CO2, SEAP levels are determined with the addition of HEK-Blue™ Detection reagent (Invivogen), a cell culture medium that allows for detection of SEAP, according to manufacturer's specifications. The percent inhibition is determined as the % reduction in the HEK-Blue signal present in wells treated with agonist plus DMSO alone compared to wells treated with a known inhibitor.

human TLR8 = target: T2, human TLR8 (Homo sapiens, UniProt Q9NR97); test: TLR8 inhibition reporter assay (HEK-Blue SEAP); details: HEK-Blue cells overexpressing human TLR8, stimulated with R848 15.9 μM, 22 hour incubation
T2 construct: host or cells: HEK-Blue cells
T2 sequence (Q9NR97 27-1041): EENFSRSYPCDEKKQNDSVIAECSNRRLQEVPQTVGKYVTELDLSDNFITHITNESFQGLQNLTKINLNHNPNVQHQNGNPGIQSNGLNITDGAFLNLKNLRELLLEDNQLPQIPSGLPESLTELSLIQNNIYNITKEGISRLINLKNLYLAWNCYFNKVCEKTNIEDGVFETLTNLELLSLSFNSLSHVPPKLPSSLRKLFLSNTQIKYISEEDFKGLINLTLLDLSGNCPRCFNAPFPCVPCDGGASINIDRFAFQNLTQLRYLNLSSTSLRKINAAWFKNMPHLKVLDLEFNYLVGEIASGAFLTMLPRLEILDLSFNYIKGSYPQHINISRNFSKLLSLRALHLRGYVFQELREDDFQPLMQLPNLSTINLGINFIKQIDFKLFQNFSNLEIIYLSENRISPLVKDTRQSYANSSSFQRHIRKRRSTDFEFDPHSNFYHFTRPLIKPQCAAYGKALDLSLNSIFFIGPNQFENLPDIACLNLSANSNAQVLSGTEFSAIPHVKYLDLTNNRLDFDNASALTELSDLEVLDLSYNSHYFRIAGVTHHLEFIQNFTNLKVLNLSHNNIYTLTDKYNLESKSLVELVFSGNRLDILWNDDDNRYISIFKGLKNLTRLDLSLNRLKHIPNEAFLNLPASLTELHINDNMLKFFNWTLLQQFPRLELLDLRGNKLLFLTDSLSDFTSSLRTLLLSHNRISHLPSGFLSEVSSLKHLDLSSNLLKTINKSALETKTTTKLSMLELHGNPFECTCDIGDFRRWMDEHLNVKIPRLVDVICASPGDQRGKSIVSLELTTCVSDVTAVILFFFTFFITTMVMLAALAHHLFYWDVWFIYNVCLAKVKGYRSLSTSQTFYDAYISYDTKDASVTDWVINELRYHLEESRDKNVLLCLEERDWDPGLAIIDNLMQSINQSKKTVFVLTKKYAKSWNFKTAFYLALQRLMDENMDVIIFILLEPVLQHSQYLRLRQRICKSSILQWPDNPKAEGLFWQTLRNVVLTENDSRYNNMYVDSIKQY
Method: as §1, §2

human TLR9 = target: T3, human TLR9 (Homo sapiens, UniProt Q9NR96); test: TLR9 inhibition reporter assay (HEK-Blue SEAP); details: HEK-Blue cells overexpressing human TLR9, stimulated with ODN2006 5 nM, 22 hour incubation
T3 construct: host or cells: HEK-Blue cells
T3 sequence (Q9NR96 26-1032): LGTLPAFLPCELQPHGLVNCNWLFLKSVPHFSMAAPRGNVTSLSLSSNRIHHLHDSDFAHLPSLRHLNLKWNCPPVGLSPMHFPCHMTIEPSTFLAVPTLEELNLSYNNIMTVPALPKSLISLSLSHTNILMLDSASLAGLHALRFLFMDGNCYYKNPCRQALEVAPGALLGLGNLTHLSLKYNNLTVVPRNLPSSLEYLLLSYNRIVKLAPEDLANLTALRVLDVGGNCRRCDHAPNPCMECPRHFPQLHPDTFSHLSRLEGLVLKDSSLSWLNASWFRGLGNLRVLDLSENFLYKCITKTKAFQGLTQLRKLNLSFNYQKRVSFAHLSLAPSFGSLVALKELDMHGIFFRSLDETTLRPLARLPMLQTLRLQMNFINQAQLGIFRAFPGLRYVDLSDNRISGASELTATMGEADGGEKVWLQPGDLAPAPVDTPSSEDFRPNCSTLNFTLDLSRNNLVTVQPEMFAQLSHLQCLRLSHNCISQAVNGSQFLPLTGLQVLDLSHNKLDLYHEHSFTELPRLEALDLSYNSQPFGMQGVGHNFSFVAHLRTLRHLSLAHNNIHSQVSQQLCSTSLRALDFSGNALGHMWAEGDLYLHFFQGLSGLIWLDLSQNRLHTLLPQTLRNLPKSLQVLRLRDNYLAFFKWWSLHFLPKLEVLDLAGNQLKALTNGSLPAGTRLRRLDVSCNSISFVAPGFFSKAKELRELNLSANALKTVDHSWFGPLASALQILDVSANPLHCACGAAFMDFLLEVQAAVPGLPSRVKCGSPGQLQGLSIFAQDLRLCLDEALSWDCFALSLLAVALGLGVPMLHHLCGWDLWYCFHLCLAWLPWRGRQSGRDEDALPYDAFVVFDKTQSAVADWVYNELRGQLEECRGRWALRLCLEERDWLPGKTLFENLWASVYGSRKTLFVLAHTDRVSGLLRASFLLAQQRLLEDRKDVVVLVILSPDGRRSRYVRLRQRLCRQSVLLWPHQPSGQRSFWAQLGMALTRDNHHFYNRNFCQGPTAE
Method: as §1, §2

Compound | pIC50 (human TLR7) | pIC50 (human TLR8) | pIC50 (human TLR9)
5-methyl-6-(8-methyl-[1,2,4]triazolo[1,5-a]pyridin-6-yl)-N-(piperidin-4-yl)-1H-indazol-3-amine [Example 203] | 7.29 | 8.68 | 5.85
Cc1cc2c(C3CCC(N(C)C)CC3)n[nH]c2cc1-c1cc(C)c2ncnn2c1 (single isomer, unassigned) [Example 3, N,N-dimethyl-4-(5-methyl-6-(8-methyl-[1,2,4]triazolo[1,5-a]pyridin-6-yl)-1H-indazol-3-yl)cyclohexan-1-amine] | 7.99 | 9.40 | 5.95
Cc1cc2c(C3CCC(N(C)C)CC3)n[nH]c2cc1-c1cc(C)c2ncnn2c1 (single isomer, unassigned) [Example 4, N,N-dimethyl-4-(5-methyl-6-(8-methyl-[1,2,4]triazolo[1,5-a]pyridin-6-yl)-1H-indazol-3-yl)cyclohexan-1-amine] | 7.70 | 9.15 | 5.55
Cc1cc2c(C3CC(N(C)C)C3)n[nH]c2cc1-c1cc(C)c2ncnn2c1 (single isomer, unassigned) [Example 6, N,N-dimethyl-3-(5-methyl-6-(8-methyl-[1,2,4]triazolo[1,5-a]pyridin-6-yl)-1H-indazol-3-yl)cyclobutan-1-amine] | 8.03 | 9.52 | 5.49
Cc1cc(-c2cc3[nH]nc(C4CCC(NCC(=O)N(C)C)CC4)c3cc2C(C)C)cn2ncnc12 (single isomer, unassigned) [Example 124, 2-((4-(5-isopropyl-6-(8-methyl-[1,2,4]triazolo[1,5-a]pyridin-6-yl)-1H-indazol-3-yl)cyclohexyl)amino)-N,N-dimethylacetamide] | 9.52 | – | 4.96
Cc1cc(-c2cc3[nH]nc(C4CCC(N5CCC6(COC6)C5)CC4)c3cc2C(C)C)cn2ncnc12 (single isomer, unassigned) [Example 159, 6-(4-(5-isopropyl-6-(8-methyl-[1,2,4]triazolo[1,5-a]pyridin-6-yl)-1H-indazol-3-yl)cyclohexyl)-2-oxa-6-azaspiro[3.4]octane] | – | 10.00 | 5.13
Cc1cc(-c2cc3[nH]nc(C4CCC(N5CCC6(COC6)C5)CC4)c3cc2C(C)C)cn2ncnc12 (single isomer, unassigned) [Example 160, 6-(4-(5-isopropyl-6-(8-methyl-[1,2,4]triazolo[1,5-a]pyridin-6-yl)-1H-indazol-3-yl)cyclohexyl)-2-oxa-6-azaspiro[3.4]octane] | – | 9.40 | 5.14
Cc1cc(-c2cc3[nH]nc(C4CCC(N5CCC(C)(O)C5)CC4)c3cc2C(C)C)cn2ncnc12 (single isomer, unassigned) [Example 165, 1-(4-(5-isopropyl-6-(8-methyl-[1,2,4]triazolo[1,5-a]pyridin-6-yl)-1H-indazol-3-yl)cyclohexyl)-3-methylpyrrolidin-3-ol] | 9.30 | – | 4.88
Cc1cc2cn[nH]c2cc1-c1cc(C)c2ncnn2c1 [Example 63, 8-methyl-6-(5-methyl-1H-indazol-6-yl)-[1,2,4]triazolo[1,5-a]pyridine] | 6.25 | 7.49 | –
CCc1cc2c(C3CCN(C4COC4)CC3)n[nH]c2cc1-c1cc(C)c2ncnn2c1 [Example 89, 6-(5-ethyl-3-(1-(oxetan-3-yl)piperidin-4-yl)-1H-indazol-6-yl)-8-methyl-[1,2,4]triazolo[1,5-a]pyridine] | 8.08 | 9.15 | –
Cc1cc(-c2cc3[nH]nc(C4CCC(N(C)C)CC4)c3cc2C(C)C)cn2ncnc12 (stereo not shown) [Example 114, 4-(5-isopropyl-6-(8-methyl-[1,2,4]triazolo[1,5-a]pyridin-6-yl)-1H-indazol-3-yl)-N,N-dimethylcyclohexan-1-amine] | 9.70 | – | 5.18
Cc1cc(-c2cc3[nH]nc(C4CCN(CCC#N)CC4)c3cc2C(C)C)cn2ncnc12 [Example 121, 3-(4-(5-isopropyl-6-(8-methyl-[1,2,4]triazolo[1,5-a]pyridin-6-yl)-1H-indazol-3-yl)piperidin-1-yl)propanenitrile] | 8.72 | 10.00 | –
